Assay results taken from ChEMBL document CHEMBL1275588, “Role of pfmdr1 amplification and expression in induction of resistance to artemisinin derivatives in Plasmodium falciparum” (Antimicrob Agents Chemother, 2010).
Active and inactive are the calls of the source. No cut-off for these calls is given here.

Tests used:
Plasmodium falciparum [1] = test: Antimalarial activity against Plasmodium falciparum D6 assessed as inhibition of [3H]hypoxanthine uptake organism selected on 50 ng/ml compound concentration; assay type: functional, organism-based
Plasmodium falciparum [2] = test: Antimalarial activity against Plasmodium falciparum D6 organism selected on 30 ng/ml compound concentration; assay type: functional, organism-based
Plasmodium falciparum [3] = test: Antimalarial activity against Plasmodium falciparum D6 harboring 1 copy number of pfmdr1 gene organism selected at up to 80 ng/ml compound concentration; assay type: functional, organism-based
Plasmodium falciparum [4] = test: Antimalarial activity against Plasmodium falciparum W2 organism selected on up to 80 ng/ml compound concentration; assay type: functional, organism-based
Plasmodium falciparum [5] = test: Antimalarial activity against Plasmodium falciparum W2 harboring 3 copy number of pfmdr1 gene organism selected at 80 ng/ml compound concentration; assay type: functional, organism-based
Plasmodium falciparum [6] = test: Antimalarial activity against Plasmodium falciparum D6 assessed as inhibition of [3H]hypoxanthine uptake organism selected on 80 ng/ml compound concentration; assay type: functional, organism-based
Plasmodium falciparum [7] = test: Antimalarial activity against Plasmodium falciparum D6 assessed as inhibition of [3H]hypoxanthine uptake; assay type: functional, organism-based
Plasmodium falciparum [8] = test: Antimalarial activity against Plasmodium falciparum TM91C235 selected on 30 ng/ml compound concentration; assay type: functional, organism-based
Plasmodium falciparum [9] = test: Antimalarial activity against Plasmodium falciparum W2 harboring 3 copy number of pfmdr1 gene organism selected at 120 ng/ml compound concentration; assay type: functional, organism-based
Plasmodium falciparum [10] = test: Antimalarial activity against Plasmodium falciparum TM91C235 harboring 3 copy number of pfmdr1 gene organism selected at 80 ng/ml compound concentration; assay type: functional, organism-based
Plasmodium falciparum [11] = test: Antimalarial activity against Plasmodium falciparum TM91C235 assessed as inhibition of [3H]hypoxanthine uptake; assay type: functional, organism-based
Plasmodium falciparum [12] = test: Antimalarial activity against Plasmodium falciparum D6 assessed as level of pfmdr1 mRNA expression organism selected on 80 ng/ml of compound by quantitative real-time RT-PCR with respect to wild type; assay type: functional, organism-based
Plasmodium falciparum [13] = test: Antimalarial activity against Plasmodium falciparum W2 assessed as inhibition of [3H]hypoxanthine uptake; assay type: functional, organism-based
Plasmodium falciparum [14] = test: Antimalarial activity against Plasmodium falciparum W2 harboring 3 copy number of pfmdr1 gene organism selected at 50 ng/ml compound concentration; assay type: functional, organism-based
Plasmodium falciparum [15] = test: Antimalarial activity against Plasmodium falciparum TM91C235 assessed as level of pfmdr1 mRNA expression organism selected on 80 ng/ml of compound by quantitative real-time RT-PCR with respect to wild type; assay type: functional
Plasmodium falciparum [16] = test: Antimalarial activity against Plasmodium falciparum W2 harboring 1 copy number of pfmdr1 gene organism selected at 10 to 30 ng/ml compound concentration; assay type: functional, organism-based
Plasmodium falciparum [17] = test: Antimalarial activity against Plasmodium falciparum TM91C235 assessed as inhibition of [3H]hypoxanthine uptake organism selected on 80 ng/mL compound concentration; assay type: functional, organism-based
Plasmodium falciparum [18] = test: Antimalarial activity against Plasmodium falciparum TM91C235 assessed as inhibition of [3H]hypoxanthine uptake organism selected on 50 ng/mL compound concentration; assay type: functional, organism-based
Plasmodium falciparum [19] = test: Antimalarial activity against Plasmodium falciparum W2 organism selected on 40 ng/ml compound concentration; assay type: functional, organism-based
Plasmodium falciparum [20] = test: Antimalarial activity against Plasmodium falciparum W2 assessed as level of pfmdr1 mRNA expression organism selected on 80 ng/ml of compound by quantitative real-time RT-PCR with respect to wild type; assay type: functional
Plasmodium falciparum [21] = test: Antimalarial activity against Plasmodium falciparum W2 assessed as inhibition of [3H]hypoxanthine uptake organism selected on 50 ng/mL compound concentration; assay type: functional, organism-based
Plasmodium falciparum [22] = test: Antimalarial activity against Plasmodium falciparum TM91C235 harboring 2 copy number of pfmdr1 gene organism selected at 10 to 50 ng/ml compound concentration; assay type: functional, organism-based
Plasmodium falciparum [23] = test: Antimalarial activity against Plasmodium falciparum W2 assessed as inhibition of [3H]hypoxanthine uptake organism selected on 80 ng/mL compound concentration; assay type: functional, organism-based
Plasmodium falciparum [24] = test: Antimalarial activity against Plasmodium falciparum W2 harboring 2 copy number of pfmdr1 gene organism selected at 40 ng/ml compound concentration; assay type: functional, organism-based
Plasmodium falciparum [25] = test: Antimalarial activity against Plasmodium falciparum W2 assessed as level of pfmdr1 mRNA expression organism selected on 40 ng/ml of compound by quantitative real-time RT-PCR with respect to wild type; assay type: functional
Plasmodium falciparum [26] = test: Antimalarial activity against Plasmodium falciparum W2 harboring 2 copy number of pfmdr1 gene organism selected at 200 ng/ml compound concentration; assay type: functional, organism-based

## C[C@@H]1[C@H](OCc2ccc(C(=O)O)cc2)O[C@@H]2O[C@@]3(C)CC[C@@H]4[C@@H](C)CC[C@@H]1[C@]24OO3 [ARTELINIC ACID]
Plasmodium falciparum [1]
  IC50: 34 nM
  IC90: 81.3 nM
Plasmodium falciparum [2]
  Activity: inactive
Plasmodium falciparum [3]
  Activity: inactive
Plasmodium falciparum [4]
  Activity: inactive
Plasmodium falciparum [5]
  Activity: inactive
Plasmodium falciparum [6]
  IC50: 23.6 nM
  IC90: 75.9 nM
Plasmodium falciparum [7]
  IC90: 21.8 nM
Plasmodium falciparum [8]
  Activity: inactive
Plasmodium falciparum [9]
  Activity: Active
Plasmodium falciparum [10]
  Activity: Active
Plasmodium falciparum [11]
  IC50: 11.1 nM
  IC90: 23 nM
Plasmodium falciparum [12]
  Activity: Active
Plasmodium falciparum [13]
  IC50: 4.37 nM
  IC90: 7.45 nM
Plasmodium falciparum [14]
  Activity: inactive
Plasmodium falciparum [15]
  fold change (FC): 2.1
Plasmodium falciparum [16]
  Activity: Active
Plasmodium falciparum [17]
  IC50: 24.6 nM
  IC90: 75.9 nM
Plasmodium falciparum [18]
  IC50: 33.7 nM
  IC90: 53.5 nM
Plasmodium falciparum [19]
  Activity: inactive
Plasmodium falciparum [20]
  fold change (FC): 3
Plasmodium falciparum [21]
  IC50: 23.3 nM
  IC90: 51.3 nM
Plasmodium falciparum [22]
  Activity: inactive
Plasmodium falciparum [23]
  IC50: 22.8 nM
  IC90: 56.8 nM

## C[C@@H]1CC[C@H]2[C@@H](C)C(=O)O[C@@H]3O[C@@]4(C)CC[C@@H]1[C@]32OO4 [ARTEMISININ]
Plasmodium falciparum [24]
  Activity: inactive
Plasmodium falciparum [25]
  fold change (FC): 2.2
Plasmodium falciparum [26]
  Activity: inactive
